Data set [1] has as its system iron-induced lipid peroxidation in rat brain homogenates. In words: Iron-induced lipid peroxidation in rat brain homogenates. Conditions: 10 mM; for Inhibition of LP(10 mM): mean percent inhibition (Table 3); for LP (%) (10 mM): relative percentage of inhibition (Table 1).
Data set [2] in a line: MTT relative viability, PCMV-SEAP (hTERT-BJ1) cells. Type of data set: cell-based. Particulars: human, stable PCMV-SEAP reporter clone. The source says: Culture media were changed every 3 days. […] The stable clones were selected using G418.
Data set [3] deals with CMV promoter. Put plainly: SEAP reporter assay of CMV promoter activity, PCMV-SEAP (hTERT-BJ1). The format is cell-based. Particulars: Homo sapiens, read-out: Relative SEAP activity (%). A general note: Reporter assays use an easily measured gene product as a stand-in for the process of interest.
The test system of data set [4] is rat glioma C6 cells. Put plainly: Cytotoxicity assay (XTT colorimetric), C6 cells. The format is cell-based. Particulars: 48 h of drug exposure.
Data set [5] relates to transcriptional activity of hTERT. In words: SEAP reporter assay of hTERT expression, PhTERT-SEAP (H1299). The format is cell-based, human. Particulars: for Relative SEAP activity (%): hTERT-H1299. The gist of the method:
(§1)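 We treated G418-selected reporter cells with varying drug amounts for 24 h and measured SEAP in the heat-inactivated medium as the rate of 405 nm absorbance increase.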

Data set [6] relates to human hepatoma G2 cells. Put plainly: Cytotoxicity assay (XTT colorimetric), Hep G2. The format is cell-based. Conditions: 48 h of drug exposure. In general terms: Formazan colour is commonly taken as a measure of viable cells.
Data set [7] is described as follows: MTT relative viability, PhTERT-SEAP (hTERT-BJ1) cells. Particulars: human.
Protocol: (§2) The tetrazolium reagent (MTT; 3-(4,5-di-methylthiazol)-2,5-diphenyl tetrazolium bromide, USB) was designed to yield a colored formazan upon metabolic reduction by viable cells. Approximately […] cells were plated onto each well of a 96-well plate and incubated in 5% CO2 at 37° C. for 24 h. To assess the in vitro cytotoxicity, each compound was dissolved in DMSO and prepared immediately before the experiments and was diluted into the complete medium before addition to cell cultures. Test compounds were then added to the culture medium for designated various concentrations. After 48 h, an amount of 25 μL of MTT was added to each well, and the samples were incubated at 37° C. for 4 h. A 100 μL solution of lysis buffer containing 20% SDS and 50% N,N-dimethylformamide was added to each well and incubated at 37° C. for another 16 h. The absorbency at 550 nm was measured using an ELISA reader.
(§3) Non small lung cancer cells H1299 (telomerase positive) were grown in RPMI 1640 media supplemented with 10% fetal bovine serum, 100 units/mL penicillin and 100 mg/mL streptomycin in a humidified atmosphere with 5% CO2 at 37° C. The hTERT immortalized hTERT-BJ1 (BD Biosciences Clontech)^39 were grown in DMEM media supplemented with 10% fetal calf serum, 100 units/mL penicillin and 100 mg/mL streptomycin, 1 mM sodium pyruvate, and 4 mM I-arginine in a humidified atmosphere with 5% CO2 at 37° C. Culture media were changed every 3 days. […] The stable clones derived from H1299 or hTERT-BJ1 were cultured using conditions that are similar to their parental cells.
Data set [8] in a line: MTT relative viability, PhTERT-SEAP (H1299) cells. Particulars: human.
The test system of data set [9] is transcriptional activity of hTERT. In words: SEAP reporter assay of hTERT expression, PhTERT-SEAP (hTERT-BJ1). Type of data set: cell-based, human. Particulars: hTERT-BJ1. An outline of the steps: as §1
Data set [10] concerns non-small-cell lung cancer cells H1299.
Data set [11] concerns hTERT-BJ1 cells.
Protocol: as §2, §3
For data set [12], the system named is hepatitis B virus transfected hepatoma cell lines, HepG 2.2.15 cells. In words: Cytotoxicity assay, 2.2.15 cells. The format is cell-based, human. Conditions: 48 h of drug exposure.
Setting [13] is: Homo sapiens, NCI-H1299, H1299, read-out: Relative SEAP activity (%).
[14] abbreviates: Homo sapiens, read-out: Relative SEAP activity (%).

Where two headings read alike, the source gives them in different places.

As a reminder, the viability is a read-out of living cells in per cent, often relative to untreated cells. One may read the IC50 as the midpoint of a concentration-inhibition curve. Lower therefore signals higher potency. As usually defined, the melting point is the temperature, or range, at which the solid turns liquid. `CCC(=O)Oc1cccc2c1C(=O)c1cccc(OC(=O)CC)c1C2=O` [IIIa, 1,5-Bis(propionyloxy)-anthraquinone] returned a melting point of 230 to 231 °C. Besides, the “Inhibition of LP(10 mM)” value in [1] is on record as −100%. Besides, the viability at 48 h, 2.8 µM in data set [2] (2.8 μM) turned out to be 114 ± 16%. The viability at 48 h, 28 µM in data set [2] (28 μM) amounted to 110 ± 12%. The viability at 48 h, 280 µM in data set [2] (280 μM) stood at 94 ± 21%. For the same molecule, the activity at 2.8 µM in data set [3] (2.8 μM) came to 101 ± 6%. The activity at 28 µM in [3] (28 μM) is 112 ± 6%. In data set [3] (280 μM), the activity at 280 µM turned out to be 138 ± 12%. Moreover, the concentration for half-maximal inhibition (IC50) in [4] (Rattus norvegicus, C6) was determined as 21.1 ± 1.6 µM. The activity at 2.8 µM in data set [5] (Homo sapiens, NCI-H1299, 2.8 μM, H1299, read-out: Relative SEAP activity (%)) stood at 103 ± 5.8%. Moreover, in [5] (Homo sapiens, NCI-H1299, 28 μM, H1299, read-out: Relative SEAP activity (%)), the activity at 28 µM came to 107 ± 4.9%. Also, the activity at 280 µM in data set [5] (Homo sapiens, NCI-H1299, 280 μM, H1299, read-out: Relative SEAP activity (%)) worked out at 97 ± 3.1%. Also, half-maximal inhibition in [6] (Homo sapiens, HepG2) (IC50) required 4.1 ± 0.5 µM. Moreover, in [7], the viability at 48 h, 2.8 µM was found to be 99 ± 11.9%; the viability at 48 h, 28 µM came to 109 ± 8.7%; the viability at 48 h, 280 µM was 93 ± 10.8%. In data set [8], the viability at 48 h, 2.8 µM worked out at 116 ± 8%; the viability at 48 h, 28 µM came to 116 ± 7.4%; the viability at 48 h, 280 µM came out at 87 ± 6.6%. In addition, in data set [9] (Homo sapiens, 2.8 μM, read-out: Relative SEAP activity (%)), the activity at 2.8 µM came out at 131 ± 7%. For the same molecule, the activity at 28 µM in [9] (Homo sapiens, 28 μM, read-out: Relative SEAP activity (%)) came out at 152 ± 16.7%. The activity at 280 µM in data set [9] (Homo sapiens, 280 μM, read-out: Relative SEAP activity (%)) was 161 ± 12.2%.
In turn, `CC(C)(C)C(=O)Oc1cccc2c1C(=O)c1cccc(OC(=O)C(C)(C)C)c1C2=O` [IIId, 1,5-Bis(pivaloyloxy)-anthraquinone] yielded a melting point of 166 to 167 °C. Also, in [1], the “Inhibition of LP(10 mM)” value is given as −23 ± 1.1^ %. The viability at 48 h, 2.4 µM in data set [2] (2.4 μM) stood at 115 ± 7%. Moreover, the viability at 48 h, 24 µM in [2] (24 μM) was found to be 104 ± 8%. In addition, in data set [2] (240 μM), the viability at 48 h, 240 µM is 103 ± 11%. Also, the activity at 2.4 µM in data set [3] (2.4 μM) was found to be 102 ± 10%. The activity at 24 µM in [3] (24 μM) amounted to 114 ± 18%. For the same molecule, the activity at 240 µM in data set [3] (240 μM) is 141 ± 11%. Further, it took 12 ± 1.5 µM to reach half-maximal inhibition in data set [4] (Rattus norvegicus, C6) (IC50). In addition, the activity at 2.4 µM in data set [5] (Homo sapiens, NCI-H1299, 2.4 μM, H1299, read-out: Relative SEAP activity (%)) was determined as 105 ± 4.9%. For the same molecule, the activity at 24 µM in data set [5] (Homo sapiens, NCI-H1299, 24 μM, H1299, read-out: Relative SEAP activity (%)) was found to be 78 ± 14.8%. In [5] (Homo sapiens, NCI-H1299, 240 μM, H1299, read-out: Relative SEAP activity (%)), the activity at 240 µM is 80 ± 10.1%. Further, in data set [6] (Homo sapiens, HepG2), the midpoint of inhibition, the IC50, lay at 13.7 ± 1.8 µM. Besides, in data set [7], the viability at 48 h, 2.4 µM was 94 ± 3.4%; the viability at 48 h, 24 µM is 93 ± 6%; the viability at 48 h, 240 µM was found to be 100 ± 9%. Also, in [8], the viability at 48 h, 2.4 µM turned out to be 106 ± 8.9%; the viability at 48 h, 24 µM was found to be 97 ± 7.1%; the viability at 48 h, 240 µM was 70 ± 5.2%. For the same molecule, in data set [9] (Homo sapiens, 2.4 μM, read-out: Relative SEAP activity (%)), the activity at 2.4 µM is 147 ± 11.1%. Also, the activity at 24 µM in [9] (Homo sapiens, 24 μM, read-out: Relative SEAP activity (%)) was determined as 165 ± 18.7%. Moreover, in [9] (Homo sapiens, 240 μM, read-out: Relative SEAP activity (%)), the activity at 240 µM came to 141 ± 14.4%.
The molecule `Nc1ccccc1Sc1cccc2c1C(=O)c1cccc(Sc3ccccc3N)c1C2=O` [IIf, 1,5-Bis(o-aminophenylthio)-Anthraquinone] showed a melting point of 283 to 284 °C. In [1], the “LP (%) (10 mM)” value was found to be 5 ± 0.5%. Further, in data set [2] (2.2 μM), the viability at 48 h, 2.2 µM is 108 ± 9%. In addition, in [2], the viability at 48 h, 22 µM was 109 ± 4% and the viability at 48 h, 220 µM was found to be 48 ± 6%. Moreover, the activity at 2.2 µM in data set [3] (2.2 μM) is 103 ± 8%. In data set [3], the activity at 22 µM is 102 ± 10% and the activity at 220 µM was determined as 122 ± 8%. For the same molecule, in data set [4] (Rattus norvegicus, C6), the half-maximal inhibitory concentration (IC50) was found to be 15.1 ± 1.7 µM. In data set [5] (setting [13]), the activity at 2.2 µM was determined as 108 ± 12.2%, the activity at 22 µM was 96 ± 8.4% and the activity at 220 µM was found to be 59 ± 6.6%. In data set [6] (Homo sapiens, HepG2), this molecule registered an IC50 of 34 ± 1.7 µM. In data set [7], the viability at 48 h, 2.2 µM stood at 103 ± 7.9%; the viability at 48 h, 22 µM worked out at 107 ± 5.5%; the viability at 48 h, 220 µM came to 25 ± 3.3%. Besides, in [8], the viability at 48 h, 2.2 µM stood at 94 ± 3.5%; the viability at 48 h, 22 µM was 50 ± 3.3%; the viability at 48 h, 220 µM was found to be 14 ± 2.5%. Moreover, in data set [9] (setting [14]), the activity at 2.2 µM is 136 ± 17.5%, the activity at 22 µM is 141 ± 18.2% and the activity at 220 µM stood at 115 ± 29.7%.
In the case of `COc1ccc(CSc2cccc3c2C(=O)c2cccc(SCc4ccc(OC)cc4)c2C3=O)cc1` [IIj, 1,5-Bis(p-methoxybenzylthio)-Anthraquinone], the melting point fell in the range of 297 to 299 °C. The “LP (%) (10 mM)” value in data set [1] is given as 67 ± 2.9%. The viability at 48 h, 2 µM in data set [2] (2.0 μM) is 116 ± 13%. Moreover, in data set [2], the viability at 48 h, 22 µM came to 67 ± 18% and the viability at 48 h, 220 µM was 52 ± 7%. Further, in [3] (2.0 μM), the activity at 2 µM came out at 103 ± 15%. Besides, in [3], the activity at 22 µM was determined as 102 ± 8% and the activity at 220 µM was determined as 100 ± 8%. Further, in data set [4] (Rattus norvegicus, C6), the IC50 was determined as 25.1 ± 2.8 µM. Further, in [5] (setting [13]), the activity at 2.2 µM was determined as 92 ± 3.3%, the activity at 22 µM worked out at 96 ± 8.5% and the activity at 220 µM amounted to 88 ± 5.6%. This molecule showed an IC50 in data set [6] (Homo sapiens, HepG2) of 28.6 ± 1.2 µM. Besides, in data set [7], the viability at 48 h, 2.2 µM turned out to be 119 ± 9.4%; the viability at 48 h, 22 µM was 98 ± 13.4%; the viability at 48 h, 220 µM stood at 62 ± 6.4%. Moreover, in data set [8], the viability at 48 h, 2.2 µM was determined as 89 ± 6.1%; the viability at 48 h, 22 µM worked out at 59 ± 5.4%; the viability at 48 h, 220 µM stood at 42 ± 0.3%. In data set [9] (setting [14]), the activity at 2.2 µM was 142 ± 27.7%, the activity at 22 µM worked out at 141 ± 22.6% and the activity at 220 µM amounted to 118 ± 19.2%.
On to `O=C1c2cccc(NCCO)c2C(=O)c2cccc(NCCO)c21` [IVb, 1,5-Bis(ethanolamino)anthraquinone], for which the “Relative MTT viability (%)” value in data set [10] (3 µM) was 105 ± 6.3%; in [10] (30 µM), 88 ± 9.1%; in [10] (308 µM) it was 53 ± 2.8%; in data set [11] (3 µM) it was 116 ± 5.6%; in data set [11] (30 µM), 90 ± 26.9%; in data set [11] (308 µM) it was 69 ± 18.7%. Further, the 50% inhibitory concentration (IC50) in [4] was greater than 20 µM; in data set [6], greater than 20 µM; in [12], 19.3 µM. Besides, the “Relative SEAP activity (%)” value in data set [5] (3.0 μM) is 91 ± 3.9%; in [5] (30 μM), 88 ± 4.5%; in data set [5] (308 μM), 5.7 ± 1.1%; in data set [9] (3.0 μM) it was 45 ± 20.6%; in [9] (30 μM), 16 ± 13.1%; in [9] (308 μM), 11 ± 11.6%.
For the molecule `O=C1c2cccc(NCCNCCO)c2C(=O)c2cccc(NCCNCCO)c21` [IVe, 1,5-Bis[2-(2-Aminoethylamino)ethanol]anthraquinone], the “Relative MTT viability (%)” value in [10] (2.4 µM) was found to be 97 ± 8.7%; in data set [10] (24 µM) it was 37 ± 3.9%; in [10] (242 µM), 11 ± 4.1%; in data set [11] (2.4 µM), 84 ± 19.8%; in [11] (24 µM), 60 ± 11.2%; in data set [11] (242 µM), 44 ± 12.9%. For the same molecule, the results for the half-maximal inhibitory concentration (IC50) in [4], in [6] and in data set [12] were 1.17 µM, 1.2 ± 0.02 µM and 8.35 µM, respectively. Besides, the “Relative SEAP activity (%)” value in [5] (2.4 μM) came to 87 ± 3.8%; in [5] (24 μM), 43 ± 5.5%; in data set [5] (242 μM), 40 ± 6.7%; in data set [9] (2.4 μM), 60 ± 11.6%; in data set [9] (24 μM), 40 ± 17.3%; in data set [9] (242 μM), 52 ± 19.1%.

The values above are taken from US20050009924A1 (priority 2003, published 2005).
